Laboratory results: patent US9242987B2, “Heterocyclyl pyrazolopyrimidine analogues as JAK inhibitors” (Cellzome Limited, priority 2009, dated 2016)

Legend:
[1] = biological target: T1, JAK3 (Homo sapiens, UniProt P52333); experiment: Kinobeads assay, JAK3; assay type: binding; conditions: mixed Molt4/Ramos cell lysate, dot blot detection
T1 construct: endogenous in cells; host or cells: Mixed Molt4/Ramos lysate (1:2)
T1 sequence (P52333 1-1124): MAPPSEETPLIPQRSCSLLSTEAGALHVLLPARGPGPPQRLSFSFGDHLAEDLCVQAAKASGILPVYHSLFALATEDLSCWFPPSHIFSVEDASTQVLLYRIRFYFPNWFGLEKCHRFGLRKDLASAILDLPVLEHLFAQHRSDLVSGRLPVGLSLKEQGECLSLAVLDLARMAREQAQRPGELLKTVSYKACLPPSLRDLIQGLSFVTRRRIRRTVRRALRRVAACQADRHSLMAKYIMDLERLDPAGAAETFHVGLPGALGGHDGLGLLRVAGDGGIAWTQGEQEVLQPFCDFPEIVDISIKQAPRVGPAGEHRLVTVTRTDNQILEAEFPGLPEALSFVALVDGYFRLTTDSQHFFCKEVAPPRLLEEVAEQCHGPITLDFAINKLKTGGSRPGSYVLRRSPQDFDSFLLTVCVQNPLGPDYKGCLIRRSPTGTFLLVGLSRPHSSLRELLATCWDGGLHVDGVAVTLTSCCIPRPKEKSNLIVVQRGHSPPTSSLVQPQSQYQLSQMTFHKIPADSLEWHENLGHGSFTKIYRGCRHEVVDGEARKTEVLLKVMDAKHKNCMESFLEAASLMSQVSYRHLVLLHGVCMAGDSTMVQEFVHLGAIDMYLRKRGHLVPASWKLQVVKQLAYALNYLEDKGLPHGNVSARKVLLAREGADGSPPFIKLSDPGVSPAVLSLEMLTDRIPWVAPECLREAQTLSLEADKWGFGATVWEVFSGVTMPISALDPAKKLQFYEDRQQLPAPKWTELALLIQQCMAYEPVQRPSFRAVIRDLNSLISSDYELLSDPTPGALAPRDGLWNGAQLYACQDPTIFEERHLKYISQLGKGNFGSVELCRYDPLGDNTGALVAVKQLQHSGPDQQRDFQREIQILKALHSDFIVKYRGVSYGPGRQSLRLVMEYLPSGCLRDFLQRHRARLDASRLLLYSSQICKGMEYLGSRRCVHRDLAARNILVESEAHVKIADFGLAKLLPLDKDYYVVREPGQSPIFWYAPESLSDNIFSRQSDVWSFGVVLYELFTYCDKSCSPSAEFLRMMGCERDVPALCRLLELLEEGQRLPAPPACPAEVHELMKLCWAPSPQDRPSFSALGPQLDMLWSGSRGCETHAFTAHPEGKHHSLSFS
Experimental: (§1) The compounds of the present invention as described in the previous examples were tested in a Kinobeads™ assay as described for ZAP-70 (WO-A 2007/137867). Briefly, test compounds (at various concentrations) and the affinity matrix with the immobilized aminopyrido-pyrimidine ligand 24 were added to cell lysate aliquots and allowed to bind to the proteins in the lysate sample. After the incubation time the beads with captured proteins were separated from the lysate. Bound proteins were then eluted and the presence of JAK2 and JAK3 was detected and quantified using specific antibodies in a dot blot procedure and the Odyssey infrared detection system. Dose response curves for individual kinases were generated and IC50 values calculated. Kinobeads™ assays for ZAP-70 (WO-A 2007/137867) and for kinase selectivity profiling (WO-A 2006/134056) have been previously described.
(§2) The affinity matrix was washed two times with 15 mL of 1×DP buffer containing 0.2% NP40 (IGEPAL® CA-630, Sigma, #13021) and then resuspended in 1×DP buffer containing 0.2% NP40 (3% beads slurry).
(§3) 5×DP buffer: 250 mM Tris-HCl pH 7.4, 25% Glycerol, 7.5 mM MgCl2, 750 mM NaCl, 5 mM Na3VO4; filter the 5×DP buffer through a 0.22 μm filter and store in aliquots at −80° C. The 5×DP buffer is diluted with H2O to 1×DP buffer containing 1 mM DTT and 25 mM NaF.
(§4) Stock solutions of test compounds were prepared in DMSO. In a 96 well plate 30 μL solution of diluted test compounds at 5 mM in DMSO were prepared. Starting with this solution a 1:3 dilution series (9 steps) was prepared. For control experiments (no test compound) a buffer containing 2% DMSO was used.
(§5) Molt4 cells (ATCC catalogue number CRL-1582) and Ramos cells (ATCC catalogue number CRL-1596) were grown in 1 L Spinner flasks (Integra Biosciences, #182101) in suspension in RPMI 1640 medium (Invitrogen, #21875-034) supplemented with 10% Fetal Bovine Serum (Invitrogen) at a density between 0.15×10^6 and 1.2×10^6 cells/mL. Cells were harvested by centrifugation, washed once with 1×PBS buffer (Invitrogen, #14190-094) and cell pellets were frozen in liquid nitrogen and subsequently stored at −80° C. Cells were homogenized in a Potter S homogenizer in lysis buffer: 50 mM Tris-HCl, 0.8% NP40, 5% glycerol, 150 mM NaCl, 1.5 mM MgCl2, 25 mM NaF, 1 mM sodium vanadate, 1 mM DTT, pH 7.5. One complete EDTA-free tablet (protease inhibitor cocktail, Roche Diagnostics, 1873580) per 25 mL buffer was added. The material was dounced 10 times using a mechanized POTTER S, transferred to 50 mL falcon tubes, incubated for 30 minutes on ice and spun down for 10 minutes at 20,000 g at 4° C. (10,000 rpm in Sorvall SLA600, precooled). The supernatant was transferred to an ultracentrifuge (UZ)-polycarbonate tube (Beckmann, 355654) and spun for 1 hour at 100.000 g at 4° C. (33.500 rpm in Ti50.2, precooled). The supernatant was transferred again to a fresh 50 mL falcon tube, the protein concentration was determined by a Bradford assay (BioRad) and samples containing 50 mg of protein per aliquot were prepared. The samples were immediately used for experiments or frozen in liquid nitrogen and stored frozen at −80° C.
(§6) Cell lysate (approximately 50 mg protein per plate) was thawed in a water bath at room temperature and then stored on ice. To the thawed cell lysate 1×DP 0.8% NP40 buffer containing protease inhibitors (1 tablet for 25 mL buffer; EDTA-free protease inhibitor cocktail; Roche Diagnostics 1873580) was added in order to reach a final protein concentration of 10 mg/mL total protein. The diluted cell lysate was stored on ice. Mixed Molt4/Ramos lysate was prepared by combining one volume of Molt4 lysate and two volumes of Ramos lysate (ratio 1:2).
(§7) To a 96 well filter plate (Multiscreen HTS, BV Filter Plates, Millipore #MSBVN1250) were added per well: 100 μL affinity matrix (3% beads slurry), […], of compound solution, and 50 μL of diluted lysate. […]

[2] = biological target: T2, JAK2 (Homo sapiens, UniProt O60674); experiment: Kinobeads assay, JAK2; assay type: binding; conditions: mixed Molt4/Ramos cell lysate, dot blot detection
T2 construct: endogenous in cells; host or cells: Mixed Molt4/Ramos lysate (1:2)
Experimental: as §1, §2, §3, §4, §5, §6, §7

T2 sequence (O60674 whole entry): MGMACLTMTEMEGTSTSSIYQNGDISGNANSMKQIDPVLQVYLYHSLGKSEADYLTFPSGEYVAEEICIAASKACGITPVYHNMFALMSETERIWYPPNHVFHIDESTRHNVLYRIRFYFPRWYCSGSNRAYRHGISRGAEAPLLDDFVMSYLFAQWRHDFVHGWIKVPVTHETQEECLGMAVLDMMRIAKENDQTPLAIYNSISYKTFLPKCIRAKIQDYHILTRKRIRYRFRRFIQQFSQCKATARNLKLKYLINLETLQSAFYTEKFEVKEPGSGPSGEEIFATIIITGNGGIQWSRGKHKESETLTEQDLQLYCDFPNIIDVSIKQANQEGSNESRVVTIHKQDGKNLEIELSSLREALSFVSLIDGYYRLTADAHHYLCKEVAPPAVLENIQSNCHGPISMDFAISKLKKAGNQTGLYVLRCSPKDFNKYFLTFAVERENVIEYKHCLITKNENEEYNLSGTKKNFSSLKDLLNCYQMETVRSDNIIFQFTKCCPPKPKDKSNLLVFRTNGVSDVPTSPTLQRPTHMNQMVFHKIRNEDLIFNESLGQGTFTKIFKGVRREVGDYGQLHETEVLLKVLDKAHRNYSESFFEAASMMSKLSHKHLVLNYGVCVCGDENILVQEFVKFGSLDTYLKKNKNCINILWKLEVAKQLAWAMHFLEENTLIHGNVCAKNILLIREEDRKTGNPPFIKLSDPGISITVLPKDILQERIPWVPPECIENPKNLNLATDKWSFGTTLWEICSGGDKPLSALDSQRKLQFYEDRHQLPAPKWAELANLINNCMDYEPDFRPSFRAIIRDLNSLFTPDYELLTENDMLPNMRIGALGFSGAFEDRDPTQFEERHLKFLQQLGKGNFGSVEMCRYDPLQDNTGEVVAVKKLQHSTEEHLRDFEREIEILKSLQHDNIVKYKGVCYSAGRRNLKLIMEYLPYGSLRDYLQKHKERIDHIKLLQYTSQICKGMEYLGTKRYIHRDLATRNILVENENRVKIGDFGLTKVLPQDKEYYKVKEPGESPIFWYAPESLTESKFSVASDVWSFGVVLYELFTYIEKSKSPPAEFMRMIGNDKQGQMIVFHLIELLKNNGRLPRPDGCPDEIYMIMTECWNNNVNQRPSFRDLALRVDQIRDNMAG

Compound	IC50 [1] [µM]	IC50 [2] [µM]
Cc1nn(CC(F)F)cc1Nc1ncc2cnn(Cc3ccccc3C(N)=O)c2n1 [Example 43, 2-((6-(1-(2,2-Difluoroethyl)-3-methyl-1H-pyrazol-4-ylamino)-1H-pyrazolo[3,4-d]pyrimidin-1-yl)methyl)benzamide]	0.1 to 1	1 to 10
COc1nn(CCO)cc1Nc1ncc2cnn(Cc3ccccc3C#N)c2n1 [Example 44, 2-((6-(1-(2-Hydroxyethyl)-3-methoxy-1H-pyrazol-4-ylamino)-1H-pyrazolo[3,4-d]pyrimidin-1-yl)methyl)benzonitrile]	< 0.1	1 to 10
Cn1cc(Nc2ncc3cnn(Cc4cccnc4F)c3n2)cn1 [Example 45, 1-((2-Fluoropyridin-3-yl)methyl)-N-(1-methyl-1H-pyrazol-4-yl)-1H-pyrazolo[3,4-d]pyrimidin-6-amine]	< 0.1	1 to 10
Cn1cc(Nc2ncc3cnn(Cc4ccncc4F)c3n2)cn1 [Example 46, 1-((3-Fluoropyridin-4-yl)methyl)-N-(1-methyl-1H-pyrazol-4-yl)-1H-pyrazolo[3,4-d]pyrimidin-6-amine]	0.1 to 1	1 to 10
Cn1cc(Nc2ncc3cnn(Cc4ccc(F)cc4F)c3n2)cn1 [Example 47, 1-(2,4-Difluorobenzyl)-N-(1-methyl-1H-pyrazol-4-yl)-1H-pyrazolo[3,4-d]pyrimidin-6-amine]	0.1 to 1	1 to 10
Cn1cc(Nc2ncc3cnn(CCc4ccccc4)c3n2)cn1 [Example 48, N-(1-Methyl-1H-pyrazol-4-yl)-1-phenethyl-1H-pyrazolo[3,4-d]pyrimidin-6-amine]	0.1 to 1	1 to 10
COc1nn(CCO)cc1Nc1ncc2cnn(Cc3ccccc3F)c2n1 [Example 49, 2-(4-(1-(2-Fluorobenzyl)-1H-pyrazolo[3,4-d]pyrimidin-6-ylamino)-3-methoxy-1H-pyrazol-1-yl)ethanol]	< 0.1	1 to 10
COc1nn(CCO)cc1Nc1ncc2cnn(Cc3cccc(F)c3F)c2n1 [Example 50, 2-(4-(1-(2,3-Difluorobenzyl)-1H-pyrazolo[3,4-d]pyrimidin-6-ylamino)-3-methoxy-1H-pyrazol-1-yl)ethanol]	< 0.1	1 to 10
COc1nn(CCO)cc1Nc1ncc2cnn(Cc3cc(F)ccc3F)c2n1 [Example 51, 2-(4-(1-(2,5-Difluorobenzyl)-1H-pyrazolo[3,4-d]pyrimidin-6-ylamino)-3-methoxy-1H-pyrazol-1-yl)ethanol]	< 0.1	1 to 10
Cn1cc(Nc2ncc3cnn(Cc4cc(F)ccc4C#N)c3n2)cn1 [Example 52, 4-Fluoro-2-((6-(1-methyl-1H-pyrazol-4-ylamino)-1H-pyrazolo[3,4-d]pyrimidin-1-yl)methyl)benzonitrile]	< 0.1	< 0.1
Cn1cc(Nc2ncc3cnn(Cc4cc(F)ccc4C(N)=O)c3n2)cn1 [Example 53, 4-Fluoro-2-((6-(1-methyl-1H-pyrazol-4-ylamino)-1H-pyrazolo[3,4-d]pyrimidin-1-yl)methyl)benzamide]	< 0.1	< 0.1
Cn1cc(Nc2ncc3cnn(-c4ccc(NS(C)(=O)=O)cn4)c3n2)cn1 [Example 54, N-(6-(6-(1-Methyl-1H-pyrazol-4-ylamino)-1H-pyrazolo[3,4-d]pyrimidin-1-yl)pyridin-3-yl)methanesulfonamide]	0.1 to 1	1 to 10
Cc1nc(-n2ncc3cnc(Nc4cnn(C)c4)nc32)ccc1NS(C)(=O)=O [Example 55, N-(2-Methyl-6-(6-(1-methyl-1H-pyrazol-4-ylamino)-1H-pyrazolo[3,4-d]pyrimidin-1-yl)pyridin-3-yl)methanesulfonamide]	0.1 to 1	1 to 10
Cn1cc(Nc2ncc3cnn(-c4ccc(F)cc4)c3n2)cn1 [Example 56, 1-(4-Fluorophenyl)-N-(1-methyl-1H-pyrazol-4-yl)-1H-pyrazolo[3,4-d]pyrimidin-6-amine]	0.1 to 1	1 to 10
Cn1cc(Nc2ncc3cnn(-c4ccc(Cl)cc4)c3n2)cn1 [Example 57, 1-(4-Chlorophenyl)-N-(1-methyl-1H-pyrazol-4-yl)-1H-pyrazolo[3,4-d]pyrimidin-6-amine]	0.1 to 1	≥ 10
COc1cc(-n2ncc3cnc(Nc4cnn(C)c4)nc32)ccc1F [Example 58, 1-(4-Fluoro-3-methoxyphenyl)-N-(1-methyl-1H-pyrazol-4-yl)-1H-pyrazolo[3,4-d]pyrimidin-6-amine]	0.1 to 1	≥ 10
Cc1cc(-n2ncc3cnc(Nc4cnn(C)c4)nc32)ccc1F [Example 60, 1-(4-fluoro-3-methylphenyl)-N-(1-methyl-1H-pyrazol-4-yl)-1H-pyrazolo[3,4-d]pyrimidin-6-amine]	0.1 to 1	1 to 10
Cn1cc(Nc2ncc3cnn(-c4ccc(S(C)(=O)=O)cc4)c3n2)cn1 [Example 61, N-(1-methyl-1H-pyrazol-4-yl)-1-(4-(methylsulfonyl)phenyl)-1H-pyrazolo[3,4-d]pyrimidin-6-amine]	0.1 to 1	1 to 10
Cn1cc(Nc2ncc3cnn(Cc4cc(F)ccc4Cl)c3n2)cn1 [Example 62, 1-(2-Chloro-5-fluorobenzyl)-N-(1-methyl-1H-pyrazol-4-yl)-1H-pyrazolo[3,4-d]pyrimidin-6-amine]	< 0.1	< 0.1
Cn1cc(Nc2ncc3cnn(Cc4c(F)cccc4Cl)c3n2)cn1 [Example 63, 1-(2-Chloro-6-fluorobenzyl)-N-(1-methyl-1H-pyrazol-4-yl)-1H-pyrazolo[3,4-d]pyrimidin-6-amine]	< 0.1	0.1 to 1
Cn1cc(Nc2ncc3cnn(Cc4cc(Cl)ccc4F)c3n2)cn1 [Example 64]	< 0.1	0.1 to 1
